Data taken from ChEMBL document CHEMBL3045163, “Synthesis of benzothiazole derivatives having acetamido and carbothioamido pharmacophore as anticonvulsant agents” (Med Chem Res, 2012).
Calls of active or inactive are those of the source. The calls are words filed in the database; no cut-off is given here.

Columns and labels:
Mus musculus [1] = assay: Anticonvulsant activity in ip dosed Mus musculus (mouse) assessed as protection against maximal electroshock-induced seizure after 0.5 hr; assay type: functional; details: read-out: MED
Mus musculus [2] = assay: Anticonvulsant activity in ip dosed Mus musculus (mouse) assessed as protection against subcutaneous pentylenetetrazole-induced seizure after 4 hr; assay type: functional; details: read-out: MED
Mus musculus [3] = assay: Neurotoxicity in Mus musculus (mouse) assessed as motor impairment at 300 mg/kg, ip after 0.5 hr by rotorod test; assay type: toxicity, organism-based; set-up: dose 300 mg/kg, route intraperitoneal; details: in vivo
Mus musculus [4] = assay: Neurotoxicity in ip dosed Mus musculus (mouse) assessed as motor impairment after 4 hr by rotorod test; assay type: toxicity, organism-based; details: in vivo
Mus musculus [5] = assay: Anticonvulsant activity in ip dosed Mus musculus (mouse) assessed as protection against subcutaneous pentylenetetrazole-induced seizure after 0.5 hr; assay type: functional; details: read-out: MED
Mus musculus [6] = assay: Antidepressant activity in Mus musculus (mouse) assessed as immobility time at 100 mg/kg, ip administered 60 min before test measured during last 4 min of 6 min testing period; assay type: functional; details: route intraperitoneal
Mus musculus [7] = assay: Anticonvulsant activity in ip dosed Mus musculus (mouse) assessed as protection against maximal electroshock-induced seizure after 4 hr; assay type: functional; details: read-out: MED
[8] = Octanol-phosphate buffer partition coefficient, log P of the compound; assay type: physicochemical
Mus musculus [9] = assay: Neurotoxicity in ip dosed Mus musculus (mouse) assessed as motor impairment after 0.5 hr by rotorod test; assay type: toxicity, organism-based; details: in vivo
Mus musculus [10] = assay: Anticonvulsant activity in Mus musculus (mouse) assessed as protection against subcutaneous pentylenetetrazole-induced seizure at 300 mg/kg, ip after 4 hr; assay type: functional, organism-based; set-up: dose 300 mg/kg
Mus musculus [11] = assay: Anticonvulsant activity in Mus musculus (mouse) assessed as protection against subcutaneous pentylenetetrazole-induced seizure at 300 mg/kg, ip after 0.5 hr; assay type: functional, organism-based; set-up: dose 300 mg/kg
Mus musculus [12] = assay: Anticonvulsant activity in Mus musculus (mouse) assessed as protection against maximal electroshock-induced seizure at 300 mg/kg, ip after 0.5 hr; assay type: functional, organism-based; set-up: dose 300 mg/kg
Mus musculus [13] = assay: Anticonvulsant activity in Mus musculus (mouse) assessed as protection against maximal electroshock-induced seizure at 300 mg/kg, ip after 4 hr; assay type: functional, organism-based; set-up: dose 300 mg/kg
Mus musculus [14] = assay: Neurotoxicity in Mus musculus (mouse) assessed as motor impairment at 300 mg/kg, ip after 4 hr by rotorod test; assay type: toxicity, organism-based; set-up: dose 300 mg/kg, route intraperitoneal; details: in vivo

Row | logP [8] | Compound | minimal effective dose (Mus musculus [1]) | minimal effective dose (Mus musculus [2]) | Activity (Mus musculus [3]) | MED (Mus musculus [4]) | minimal effective dose (Mus musculus [5]) | Time (Mus musculus [6]) | minimal effective dose (Mus musculus [7]) | MED (Mus musculus [9]) | Activity (Mus musculus [10]) | Activity (Mus musculus [11]) | Activity (Mus musculus [12]) | Activity (Mus musculus [13]) | Activity (Mus musculus [14])
1 | 3.02 | CC(C)(C)NCC(=O)Nc1nc2ccc(Cl)cc2s1 | 30 mg/kg | 300 mg/kg | Non-toxic | 300 mg/kg | 100 mg/kg | 129 s | 100 mg/kg | – | – | – | – | – | –
2 | – | NC(=O)N1c2ccccc2C=Cc2ccccc21 [CARBAMAZEPINE] | 30 mg/kg | 100 mg/kg | – | 300 mg/kg | 100 mg/kg | 179 s | 100 mg/kg | 100 mg/kg | – | – | – | – | –
3 | 5.24 | CN(C)c1ccc(/C=N/NC(=S)Nc2nc3ccc(Cl)cc3s2)cc1 | – | – | – | 100 mg/kg | – | 172 s | – | 100 mg/kg | inactive | inactive | inactive | inactive | –
4 | – | O=C1NC(=O)C(c2ccccc2)(c2ccccc2)N1 [PHENYTOIN] | 30 mg/kg | – | – | 100 mg/kg | – | – | 30 mg/kg | 100 mg/kg | inactive | inactive | – | – | –
5 | 2.14 | O=C(Cn1ccnc1)Nc1nc2ccc(Cl)cc2s1 | 30 mg/kg | 100 mg/kg | Non-toxic | – | 100 mg/kg | 137 s | 30 mg/kg | – | – | – | – | – | Non-toxic
6 | 4.62 | O=C(Cn1ccc2ccccc21)Nc1nc2ccc(Cl)cc2s1 | 100 mg/kg | 300 mg/kg | – | 300 mg/kg | – | 152 s | 300 mg/kg | 100 mg/kg | – | inactive | – | – | –
7 | 6.12 | O=C(CN(c1ccccc1)c1ccccc1)Nc1nc2ccc(Cl)cc2s1 | 300 mg/kg | – | – | – | – | 196 s | – | 300 mg/kg | inactive | inactive | – | inactive | Non-toxic
8 | 4.86 | S=C(N/N=C/c1ccccc1)Nc1nc2ccc(Cl)cc2s1 | – | – | – | 300 mg/kg | – | 162 s | 300 mg/kg | 300 mg/kg | inactive | inactive | inactive | – | –
9 | 3.88 | O=C(CNc1ccc(F)cc1)Nc1nc2ccc(Cl)cc2s1 | 100 mg/kg | 300 mg/kg | Non-toxic | – | 100 mg/kg | 169 s | 100 mg/kg | – | – | – | – | – | Non-toxic
10 | 5.16 | COc1ccc(/C=N/NC(=S)Nc2nc3ccc(Cl)cc3s2)cc1 | – | – | – | 300 mg/kg | – | 181 s | 300 mg/kg | 100 mg/kg | inactive | inactive | inactive | – | –
11 | 4.68 | O=[N+]([O-])c1ccc(/C=N/NC(=S)Nc2nc3ccc(Cl)cc3s2)cc1 | 100 mg/kg | 300 mg/kg | – | 300 mg/kg | 300 mg/kg | 157 s | – | 300 mg/kg | – | – | – | inactive | –
12 | 5.22 | Fc1ccc(/C=N/NC(=S)Nc2nc3ccc(Cl)cc3s2)cc1 | 30 mg/kg | 100 mg/kg | – | 100 mg/kg | 100 mg/kg | 188 s | 30 mg/kg | 100 mg/kg | – | – | – | – | –
13 | 4.78 | Oc1ccc(/C=N/NC(=S)Nc2nc3ccc(Cl)cc3s2)cc1 | 100 mg/kg | – | Non-toxic | 100 mg/kg | 100 mg/kg | 169 s | – | – | inactive | – | – | inactive | –
14 | 3.16 | O=C(CN1CCCCC1)Nc1nc2ccc(Cl)cc2s1 | 30 mg/kg | – | Non-toxic | 300 mg/kg | 100 mg/kg | 145 s | 100 mg/kg | – | inactive | – | – | – | –
15 | 4.24 | O=C(CNc1ccc(Cl)cc1)Nc1nc2ccc(Cl)cc2s1 | 100 mg/kg | – | Non-toxic | 100 mg/kg | – | 161 s | – | – | inactive | inactive | – | inactive | –
16 | 5.52 | S=C(N/N=C/c1ccc(Cl)cc1)Nc1nc2ccc(Cl)cc2s1 | 300 mg/kg | – | – | – | – | 191 s | – | 300 mg/kg | inactive | inactive | – | inactive | Non-toxic
17 | 5.46 | S=C(N/N=C/c1ccccc1Cl)Nc1nc2ccc(Cl)cc2s1 | 300 mg/kg | – | Non-toxic | 100 mg/kg | – | 177 s | – | – | inactive | inactive | – | inactive | –
18 | 2.32 | O=C(CN1CCOCC1)Nc1nc2ccc(Cl)cc2s1 | 30 mg/kg | 100 mg/kg | Non-toxic | – | 100 mg/kg | 140 s | 30 mg/kg | – | – | – | – | – | Non-toxic
